Assay results as given in ChEMBL document CHEMBL1131087, “New cyclooxygenase-2/5-lipoxygenase inhibitors. 3. 7-tert-butyl-2, 3-dihydro-3,3-dimethylbenzofuran derivatives as gastrointestinal safe antiinflammatory and analgesic agents: variations at the 5 position” (J Med Chem, 1998).
Activity calls are given as the source filed them. The calls are words filed in the database; no cut-off is given here.

What was measured:
[1] = target: T1, Prostaglandin G/H synthase 2 (Homo sapiens, UniProt P35354)
T1 sequence (P35354 whole entry): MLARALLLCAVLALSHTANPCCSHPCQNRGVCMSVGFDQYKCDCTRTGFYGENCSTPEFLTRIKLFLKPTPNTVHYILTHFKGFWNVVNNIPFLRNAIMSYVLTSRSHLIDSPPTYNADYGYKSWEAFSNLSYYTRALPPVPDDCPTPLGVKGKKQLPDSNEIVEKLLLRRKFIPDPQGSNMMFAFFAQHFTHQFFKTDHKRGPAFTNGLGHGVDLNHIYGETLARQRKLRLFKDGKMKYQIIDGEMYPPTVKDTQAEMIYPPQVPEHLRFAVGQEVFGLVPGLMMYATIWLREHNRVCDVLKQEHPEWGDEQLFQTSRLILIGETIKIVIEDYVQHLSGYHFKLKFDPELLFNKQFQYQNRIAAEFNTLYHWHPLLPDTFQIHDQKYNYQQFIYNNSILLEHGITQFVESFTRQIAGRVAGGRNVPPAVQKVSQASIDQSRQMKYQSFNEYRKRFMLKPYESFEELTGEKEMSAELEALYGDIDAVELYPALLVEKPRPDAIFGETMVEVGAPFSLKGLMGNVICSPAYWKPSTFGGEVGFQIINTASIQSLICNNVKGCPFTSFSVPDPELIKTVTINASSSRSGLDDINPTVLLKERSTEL
Description: Inhibitory activity against prostaglandin G/H synthase 2 (COX-2)

[2] = target: Prostaglandin G/H synthase 1 (Homo sapiens, UniProt P23219)
Prostaglandin G/H synthase 1, sequence (P23219 whole entry): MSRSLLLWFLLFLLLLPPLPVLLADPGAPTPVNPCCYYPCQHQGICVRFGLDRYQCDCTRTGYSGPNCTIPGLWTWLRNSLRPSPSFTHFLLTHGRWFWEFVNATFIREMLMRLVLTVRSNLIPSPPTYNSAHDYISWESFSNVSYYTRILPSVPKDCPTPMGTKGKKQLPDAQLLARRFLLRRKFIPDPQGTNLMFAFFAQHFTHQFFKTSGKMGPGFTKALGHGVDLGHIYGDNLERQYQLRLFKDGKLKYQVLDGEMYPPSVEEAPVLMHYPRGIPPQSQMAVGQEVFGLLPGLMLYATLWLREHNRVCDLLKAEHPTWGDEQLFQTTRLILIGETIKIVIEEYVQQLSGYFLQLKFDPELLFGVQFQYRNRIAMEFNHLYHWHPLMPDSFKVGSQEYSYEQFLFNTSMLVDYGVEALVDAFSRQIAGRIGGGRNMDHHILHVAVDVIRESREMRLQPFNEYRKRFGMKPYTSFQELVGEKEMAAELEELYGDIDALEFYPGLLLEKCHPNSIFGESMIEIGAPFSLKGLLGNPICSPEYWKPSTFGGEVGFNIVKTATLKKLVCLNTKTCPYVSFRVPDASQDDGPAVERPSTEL
Description: Inhibitory activity against prostaglandin G/H synthase 1 (COX-1)

[3] = target: T2, Polyunsaturated fatty acid 5-lipoxygenase (Homo sapiens, UniProt P09917); test: Inhibition of 5-Lipoxygenase (5-LOX)
T2 sequence (P09917 whole entry): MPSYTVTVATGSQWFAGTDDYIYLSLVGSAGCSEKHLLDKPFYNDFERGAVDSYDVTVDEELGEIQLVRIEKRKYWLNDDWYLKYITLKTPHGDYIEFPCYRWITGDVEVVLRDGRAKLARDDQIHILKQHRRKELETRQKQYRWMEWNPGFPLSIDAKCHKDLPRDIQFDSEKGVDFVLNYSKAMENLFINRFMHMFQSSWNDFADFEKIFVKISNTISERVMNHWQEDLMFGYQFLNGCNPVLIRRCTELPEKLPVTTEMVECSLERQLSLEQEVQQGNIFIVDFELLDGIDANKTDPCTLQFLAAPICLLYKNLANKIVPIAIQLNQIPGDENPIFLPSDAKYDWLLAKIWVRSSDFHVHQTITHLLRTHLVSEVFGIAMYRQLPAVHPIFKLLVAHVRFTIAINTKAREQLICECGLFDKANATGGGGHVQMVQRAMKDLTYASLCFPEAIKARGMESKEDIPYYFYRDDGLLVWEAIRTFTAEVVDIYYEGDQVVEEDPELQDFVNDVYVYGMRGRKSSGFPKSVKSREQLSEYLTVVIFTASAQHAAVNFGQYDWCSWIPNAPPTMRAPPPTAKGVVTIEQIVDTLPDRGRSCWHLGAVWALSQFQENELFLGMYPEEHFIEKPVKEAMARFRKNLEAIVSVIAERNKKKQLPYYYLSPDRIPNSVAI

Rattus norvegicus [4] = test: Inhibition of paw swelling relative to the tebufelone in rat. Value was reported as Carrageenan paw edema index; format: functional
Rattus norvegicus [5] = species on record: Rattus norvegicus; test: Analgesic activity in phenylquinone-induced abdominal constriction assay (PAC); format: functional, Abdomen; parameters: concentration or dose not given beside the values
[6] = Comparative activity versus Dihydrodimethylbenzofurans in the CPE (Carrageenan paw edema) assay; -, inactive; conditions: Rattus norvegicus
Rattus norvegicus [7] = species on record: Rattus norvegicus; test: Compound was tested for its analgesic activity in phenylquinone-induced abdominal constriction assay(PAC); format: functional; conditions: Abdomen
Rattus norvegicus [8] = test: Compound was tested at a dose of 50 mg/kg for its antiinflammatory activity in carrageenan paw edema (CPE) assay
Rattus norvegicus [9] = test: Analgesic activity (50 mg/kg, sc)in phenylquinone-induced abdominal constriction assay(PAC); format: functional, Abdomen
Rattus norvegicus [10] = species on record: Rattus norvegicus; test: Comparative activity versus Dihydrodimethylbenzofurans in the CPE assay; -, indicates inactive; format: functional, organism-based
Rattus norvegicus [11] = test: Comparative activity versus Dihydrodimethylbenzofurans in the CPE (Carrageenan paw edema) assay; (-) indicates the compound is inactive; format: functional, organism-based
Rattus norvegicus [12] = test: Comparative activity versus Dihydrodimethylbenzofurans in the CPE (Carrageenan paw edema) assay; -, inactive; format: functional, organism-based

| Structure (SMILES) | IC50 [1] [nM] | IC50 [2] [nM] | IC50 [3] [nM] | CPE index (Rattus norvegicus [4]) | Inhibition (Rattus norvegicus [5]) [%] | other results |
| --- | --- | --- | --- | --- | --- | --- |
| CC(C)(C)c1cc(-c2cccs2)cc2c1OCC2(C)C | 70 | 200 | 9000 | 0.92 | 52 |  |
| CC(C)(C)c1cc(C(N)=O)cc2c1OCC2(C)C |  |  |  | 0.07 |  | Activity [6]: inactive |
| C#CCCCC(=O)c1cc(C(C)(C)C)c(O)c(C(C)(C)C)c1 [TEBUFELONE] |  |  |  |  |  | ED50 (Rattus norvegicus [7]): 3.7 mg/kg; inhibition in vivo at 50 mg/kg (Rattus norvegicus [8]): 51.1% |
| CC(C)(C)c1cc(C(=N)N2CCCC2)cc2c1OCC2(C)C | > 100000 | > 100000 | 30000 | 0.8 | 0 |  |
| CC1(C)CC(c2cc(C(C)(C)C)c3c(c2)C(C)(C)CO3)=NO1 | 200 | 70 |  | 0.56 | 80 |  |
| CC(C)(C)c1cc(C(=O)c2cccs2)cc2c1OCC2(C)C | 38 | 45 | 10000 | 0.58 | 34 |  |
| CCNC(=O)c1cc(C(C)(C)C)c2c(c1)C(C)(C)CO2 | 6000 | 20000 |  | 0.88 |  | Inhibition (Rattus norvegicus [9]): 56% |
| CC(C)(C)c1cc(/C=C\c2cccs2)cc2c1OCC2(C)C | 35 | 20 | 6000 | 0.77 | 13 |  |
| COCCNC(=O)c1cc(C(C)(C)C)c2c(c1)C(C)(C)CO2 | 30 | 1000 | 50000 | 1.47 | 84 |  |
| CC(C)(C)c1cc(C=C2CCOC2=O)cc2c1OCC2(C)C | 3.5 | 45 | 4000 | 0.93 |  |  |
| CC(C)(C)c1cc(Nc2ccccc2C(=O)O)cc2c1OCC2(C)C | 4000 | 2500 |  | 0.78 |  |  |
| Cn1cccc1C(=O)c1cc(C(C)(C)C)c2c(c1)C(C)(C)CO2 | 45 | 35 |  | 1.24 | 57 |  |
| CC(C)(C)c1cc(-c2cn3c(n2)S(=O)(=O)C=C3)cc2c1OCC2(C)C |  |  |  | 0.19 |  | Activity (Rattus norvegicus [10]): inactive |
| CC(C)(C)c1cc(/C=C\c2ccccn2)cc2c1OCC2(C)C |  |  |  | 0.5 |  | Activity (Rattus norvegicus [11]): inactive |
| CC(C)(C)c1cc(-c2csc(N=C(N)N)n2)cc2c1OCC2(C)C | 9000 | 15000 |  | 1.38 | 77 |  |
| CC(C)(C)c1cc(-c2cn3c(n2)S(=O)(=O)C=C3)cc(C(C)(C)C)c1O |  |  |  |  |  | Activity (Rattus norvegicus [11]): inactive |
| CCCCCNC(=O)c1cc(C(C)(C)C)c2c(c1)C(C)(C)CO2 | 250 | 2000 |  | 0.16 |  |  |

| Structure (SMILES) | IC50 [1] [nM] | IC50 [2] [nM] | IC50 [3] [nM] | CPE index (Rattus norvegicus [4]) | Inhibition (Rattus norvegicus [5]) [%] | other results |
| --- | --- | --- | --- | --- | --- | --- |
| CCCNC(=O)c1cc(C(C)(C)C)c2c(c1)C(C)(C)CO2 | 950 | 550 | > 50000 | 1.17 | 63 |  |
| CC(C)(C)c1cc(C(=O)NC2CC2)cc2c1OCC2(C)C | 550 | 290 | > 50000 | 0.68 | 20 |  |
| CC(C)(C)c1cc(C(N)=O)cc(C(C)(C)C)c1O |  |  |  |  |  | Activity (Rattus norvegicus [11]): inactive |
| CCCN(C(=O)c1cc(C(C)(C)C)c2c(c1)C(C)(C)CO2)C1CC1 | 4000 | 4500 |  | 1.41 |  |  |
| COc1ccc2cc([C@H](C)C(=O)O)ccc2c1 [NAPROXEN] |  |  |  | 1.06 |  | ED50 (Rattus norvegicus [7]): 1.3 mg/kg; Inhibition (Rattus norvegicus [9]): 54% |
| CC(C)(C)c1cc(-c2cn3ccsc3n2)cc2c1OCC2(C)C | 15 | 75 | 10000 | 0.81 | 68 |  |
| CC(=O)Nc1cc(C(C)(C)C)c2c(c1)C(C)(C)CO2 | 3500 | 3500 |  | 0.66 | 22 |  |
| CCN(C)C(=O)c1cc(C(C)(C)C)c2c(c1)C(C)(C)CO2 | 4500 | 2500 | 22000 | 0.86 |  | ED50 (Rattus norvegicus [7]): 19 mg/kg |
| CC(C)(C)c1cc(C(=O)O)cc(C(C)(C)C)c1O |  |  |  |  |  | Activity (Rattus norvegicus [11]): inactive |
| Cc1nc(-c2cc(C(C)(C)C)c(O)c(C(C)(C)C)c2)no1 |  |  |  |  |  | Activity (Rattus norvegicus [11]): inactive |
| CN(C(=O)c1cc(C(C)(C)C)c2c(c1)C(C)(C)CO2)C1CC1 | 1000 | 5000 | 12000 | 1.82 |  | ED50 (Rattus norvegicus [7]): 10 mg/kg |
| Cc1cc(/C=C\c2cc(C(C)(C)C)c3c(c2)C(C)(C)CO3)on1 |  |  |  | 0 |  | Activity (Rattus norvegicus [11]): inactive |
| CCCCNC(=O)c1cc(C(C)(C)C)c2c(c1)C(C)(C)CO2 | 220 | 2500 |  | 0.46 |  |  |
| CC(C)(C)c1cc(/C=C2/SC(N)=NC2=O)cc2c1OCC2(C)C | 3000 | 5000 |  | 0.07 |  | Activity (Rattus norvegicus [11]): inactive |
| CN(C)C(=O)c1cc(C(C)(C)C)c2c(c1)C(C)(C)CO2 |  |  |  | 0.36 |  | Activity (Rattus norvegicus [12]): inactive |
| CC(=O)Nc1cc(C(C)(C)C)c(O)c(C(C)(C)C)c1 |  |  |  |  |  | Activity (Rattus norvegicus [11]): inactive |
